Activity calls are given as the source filed them.
What was measured:
Format in all cases: functional
Wee1-like protein kinase = Wee1-like protein kinase (Homo sapiens, UniProt P30291); assay: Navigating the Kinome. Panel member name: WEE1
[1] = molecular target: Cell division cycle 7-related protein kinase (Homo sapiens, UniProt O00311);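 also: value obtained from a kinome-wide kinase panel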
[2] = molecular target: Mast/stem cell growth factor receptor Kit (Homo sapiens, UniProt P10721);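 also: KIT entry within a kinase panel assay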
[3] = molecular target: Mitogen-activated protein kinase 13 (Homo sapiens, UniProt O15264)
Sequence of Mitogen-activated protein kinase 13 (O15264 whole entry): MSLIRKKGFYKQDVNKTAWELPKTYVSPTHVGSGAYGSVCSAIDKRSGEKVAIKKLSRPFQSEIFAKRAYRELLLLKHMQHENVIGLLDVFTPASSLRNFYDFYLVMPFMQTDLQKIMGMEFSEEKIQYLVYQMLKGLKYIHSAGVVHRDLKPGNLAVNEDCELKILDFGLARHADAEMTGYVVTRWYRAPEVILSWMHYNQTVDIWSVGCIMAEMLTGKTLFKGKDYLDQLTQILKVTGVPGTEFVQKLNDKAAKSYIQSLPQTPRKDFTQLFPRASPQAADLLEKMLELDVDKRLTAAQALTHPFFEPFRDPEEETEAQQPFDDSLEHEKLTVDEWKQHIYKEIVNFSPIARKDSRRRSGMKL

[4] = molecular target: Interleukin-1 receptor-associated kinase 4 (Homo sapiens, UniProt Q9NWZ3)
Sequence of Interleukin-1 receptor-associated kinase 4 (Q9NWZ3 whole entry): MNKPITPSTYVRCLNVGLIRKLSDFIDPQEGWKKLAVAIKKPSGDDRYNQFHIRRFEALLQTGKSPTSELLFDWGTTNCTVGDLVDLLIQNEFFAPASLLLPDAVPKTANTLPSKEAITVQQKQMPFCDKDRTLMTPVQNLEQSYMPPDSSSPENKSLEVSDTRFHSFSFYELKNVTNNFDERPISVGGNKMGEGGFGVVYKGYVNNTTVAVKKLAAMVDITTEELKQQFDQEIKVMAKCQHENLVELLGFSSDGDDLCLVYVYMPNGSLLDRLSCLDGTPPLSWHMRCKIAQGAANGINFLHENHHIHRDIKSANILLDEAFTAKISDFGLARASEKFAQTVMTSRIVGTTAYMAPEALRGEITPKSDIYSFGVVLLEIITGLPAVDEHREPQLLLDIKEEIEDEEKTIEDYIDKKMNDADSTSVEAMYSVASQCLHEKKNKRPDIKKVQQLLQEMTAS

[5] = molecular target: Dual specificity protein kinase CLK4 (Homo sapiens, UniProt Q9HAZ1)
[6] = molecular target: Glycogen synthase kinase-3 beta (Homo sapiens, UniProt P49841);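 also: value comes from a broad kinome profiling panel, with GSK3B as the panel member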
[7] = molecular target: Homeodomain-interacting protein kinase 2 (Homo sapiens, UniProt Q9H2X6);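 also: measured within a kinome-wide kinase profiling panel, HIPK2 being one panel member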
Sequence of Homeodomain-interacting protein kinase 2 (Q9H2X6 whole entry): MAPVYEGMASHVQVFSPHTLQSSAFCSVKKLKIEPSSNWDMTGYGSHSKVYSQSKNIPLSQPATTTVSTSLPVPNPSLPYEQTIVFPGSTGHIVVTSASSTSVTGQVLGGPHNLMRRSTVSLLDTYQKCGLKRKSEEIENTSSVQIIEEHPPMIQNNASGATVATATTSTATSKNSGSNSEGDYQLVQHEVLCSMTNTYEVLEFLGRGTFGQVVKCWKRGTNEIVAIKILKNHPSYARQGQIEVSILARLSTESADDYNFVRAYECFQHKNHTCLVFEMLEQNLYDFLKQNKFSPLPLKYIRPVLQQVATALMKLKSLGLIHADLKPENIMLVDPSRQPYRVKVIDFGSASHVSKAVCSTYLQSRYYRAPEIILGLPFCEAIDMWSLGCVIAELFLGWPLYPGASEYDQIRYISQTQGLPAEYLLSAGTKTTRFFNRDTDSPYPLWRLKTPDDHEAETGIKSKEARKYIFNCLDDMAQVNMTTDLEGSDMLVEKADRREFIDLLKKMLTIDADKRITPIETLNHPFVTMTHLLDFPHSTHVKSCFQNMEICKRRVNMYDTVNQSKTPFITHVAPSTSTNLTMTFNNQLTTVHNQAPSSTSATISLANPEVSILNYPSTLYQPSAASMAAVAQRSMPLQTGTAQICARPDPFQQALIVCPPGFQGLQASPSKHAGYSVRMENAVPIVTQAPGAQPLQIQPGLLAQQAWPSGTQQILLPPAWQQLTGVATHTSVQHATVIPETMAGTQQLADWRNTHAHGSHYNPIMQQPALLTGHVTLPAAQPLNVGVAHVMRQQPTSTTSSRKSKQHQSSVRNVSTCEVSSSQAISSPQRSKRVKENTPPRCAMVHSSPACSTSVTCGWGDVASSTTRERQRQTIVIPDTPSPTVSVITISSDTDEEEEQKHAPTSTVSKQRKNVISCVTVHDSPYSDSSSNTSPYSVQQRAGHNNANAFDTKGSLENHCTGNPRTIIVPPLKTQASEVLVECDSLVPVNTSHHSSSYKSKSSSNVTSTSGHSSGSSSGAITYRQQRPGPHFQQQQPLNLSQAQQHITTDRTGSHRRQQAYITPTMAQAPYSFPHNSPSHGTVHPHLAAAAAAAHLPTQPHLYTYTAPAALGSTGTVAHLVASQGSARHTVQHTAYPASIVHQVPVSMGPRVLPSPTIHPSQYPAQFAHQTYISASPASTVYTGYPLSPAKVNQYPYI

[8] = molecular target: Mitogen-activated protein kinase kinase kinase kinase 4 (Homo sapiens, UniProt O95819)
Sequence of Mitogen-activated protein kinase kinase kinase kinase 4 (O95819 whole entry): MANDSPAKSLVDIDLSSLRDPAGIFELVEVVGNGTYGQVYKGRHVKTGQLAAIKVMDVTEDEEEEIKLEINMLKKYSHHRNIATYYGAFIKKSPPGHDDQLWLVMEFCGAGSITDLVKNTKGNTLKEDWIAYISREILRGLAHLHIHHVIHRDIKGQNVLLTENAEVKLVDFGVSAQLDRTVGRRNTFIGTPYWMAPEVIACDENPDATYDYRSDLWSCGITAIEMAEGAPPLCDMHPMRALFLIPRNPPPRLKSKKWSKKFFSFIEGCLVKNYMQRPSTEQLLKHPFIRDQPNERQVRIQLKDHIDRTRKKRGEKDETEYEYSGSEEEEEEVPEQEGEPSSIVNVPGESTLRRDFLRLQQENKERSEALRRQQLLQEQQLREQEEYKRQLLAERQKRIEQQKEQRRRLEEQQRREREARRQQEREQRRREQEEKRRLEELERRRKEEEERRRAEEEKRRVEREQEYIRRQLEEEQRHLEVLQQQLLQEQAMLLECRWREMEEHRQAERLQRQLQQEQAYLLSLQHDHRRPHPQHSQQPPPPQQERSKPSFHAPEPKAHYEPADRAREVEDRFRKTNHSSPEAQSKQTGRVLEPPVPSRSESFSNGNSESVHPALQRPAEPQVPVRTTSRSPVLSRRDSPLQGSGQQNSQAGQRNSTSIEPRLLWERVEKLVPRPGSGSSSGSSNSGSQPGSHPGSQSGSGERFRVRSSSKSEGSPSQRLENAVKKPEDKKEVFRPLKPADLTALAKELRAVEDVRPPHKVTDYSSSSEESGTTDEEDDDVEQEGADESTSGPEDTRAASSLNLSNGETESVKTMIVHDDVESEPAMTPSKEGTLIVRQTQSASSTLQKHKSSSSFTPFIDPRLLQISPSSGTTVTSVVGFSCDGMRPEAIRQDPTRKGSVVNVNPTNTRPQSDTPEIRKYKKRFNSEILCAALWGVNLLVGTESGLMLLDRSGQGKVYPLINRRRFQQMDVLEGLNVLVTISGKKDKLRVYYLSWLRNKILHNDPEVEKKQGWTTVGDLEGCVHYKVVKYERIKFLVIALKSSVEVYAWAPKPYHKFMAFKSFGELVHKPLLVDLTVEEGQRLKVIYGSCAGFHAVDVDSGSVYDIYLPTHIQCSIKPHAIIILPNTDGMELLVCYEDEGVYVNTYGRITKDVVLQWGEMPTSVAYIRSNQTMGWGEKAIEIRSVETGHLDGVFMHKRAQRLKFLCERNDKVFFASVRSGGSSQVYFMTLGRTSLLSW

[9] = molecular target: Serine/threonine-protein kinase pim-1 (Homo sapiens, UniProt P11309)
[10] = molecular target: cAMP-dependent protein kinase catalytic subunit alpha (Homo sapiens, UniProt P17612)
[11] = molecular target: Cyclin-dependent kinase 19 (Homo sapiens, UniProt Q9BWU1); assay: Navigating the Kinome. Panel member name: CDC2L6
[12] = molecular target: Cyclin-dependent kinase 8 (Homo sapiens, UniProt P49336); assay: Navigating the Kinome. Panel member name: CDK8
[13] = molecular target: Neuropeptides B/W receptor type 1 (Homo sapiens, UniProt P48145); assay: human NPBW1 receptor blockade, IC50 – cell-based, fluorescence, dose response, set 5, late-stage follow-up (AID 588566)
Sequence of Neuropeptides B/W receptor type 1 (P48145 whole entry): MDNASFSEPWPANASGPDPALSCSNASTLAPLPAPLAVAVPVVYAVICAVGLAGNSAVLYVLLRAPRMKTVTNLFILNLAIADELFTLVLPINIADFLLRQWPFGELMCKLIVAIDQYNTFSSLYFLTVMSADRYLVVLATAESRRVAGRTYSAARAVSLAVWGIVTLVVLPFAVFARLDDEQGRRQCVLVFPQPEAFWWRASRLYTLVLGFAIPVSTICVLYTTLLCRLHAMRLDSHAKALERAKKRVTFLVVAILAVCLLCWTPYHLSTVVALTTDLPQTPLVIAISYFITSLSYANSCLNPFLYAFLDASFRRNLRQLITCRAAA

[14] = molecular target: Melanin-concentrating hormone receptor 1 (Homo sapiens, UniProt Q99705); assay: Late-stage fluorescence-based counterscreen for antagonists of the G-protein coupled receptor 7 (GPR7): cell-based dose response assay to identify antagonists of the melanin-concentrating hormone receptor 1 (MCHR1) Set 5.

Sequence of Cell division cycle 7-related protein kinase (O00311 whole entry): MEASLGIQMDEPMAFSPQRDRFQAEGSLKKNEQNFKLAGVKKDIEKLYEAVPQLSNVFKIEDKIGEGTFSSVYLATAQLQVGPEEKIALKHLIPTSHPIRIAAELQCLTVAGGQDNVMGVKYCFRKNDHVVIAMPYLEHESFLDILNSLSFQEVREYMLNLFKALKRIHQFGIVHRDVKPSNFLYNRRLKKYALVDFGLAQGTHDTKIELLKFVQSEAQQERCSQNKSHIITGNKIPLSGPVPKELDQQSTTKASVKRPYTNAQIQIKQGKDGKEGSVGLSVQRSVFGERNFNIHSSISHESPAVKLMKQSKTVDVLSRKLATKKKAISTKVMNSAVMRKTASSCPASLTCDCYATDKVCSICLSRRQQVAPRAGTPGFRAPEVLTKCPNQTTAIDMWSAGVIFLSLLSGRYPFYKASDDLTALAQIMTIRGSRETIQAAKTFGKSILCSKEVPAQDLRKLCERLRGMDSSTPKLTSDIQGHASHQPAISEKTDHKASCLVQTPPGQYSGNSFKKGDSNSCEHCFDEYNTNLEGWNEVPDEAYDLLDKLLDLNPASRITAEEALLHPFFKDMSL
Sequence of Wee1-like protein kinase (P30291 whole entry): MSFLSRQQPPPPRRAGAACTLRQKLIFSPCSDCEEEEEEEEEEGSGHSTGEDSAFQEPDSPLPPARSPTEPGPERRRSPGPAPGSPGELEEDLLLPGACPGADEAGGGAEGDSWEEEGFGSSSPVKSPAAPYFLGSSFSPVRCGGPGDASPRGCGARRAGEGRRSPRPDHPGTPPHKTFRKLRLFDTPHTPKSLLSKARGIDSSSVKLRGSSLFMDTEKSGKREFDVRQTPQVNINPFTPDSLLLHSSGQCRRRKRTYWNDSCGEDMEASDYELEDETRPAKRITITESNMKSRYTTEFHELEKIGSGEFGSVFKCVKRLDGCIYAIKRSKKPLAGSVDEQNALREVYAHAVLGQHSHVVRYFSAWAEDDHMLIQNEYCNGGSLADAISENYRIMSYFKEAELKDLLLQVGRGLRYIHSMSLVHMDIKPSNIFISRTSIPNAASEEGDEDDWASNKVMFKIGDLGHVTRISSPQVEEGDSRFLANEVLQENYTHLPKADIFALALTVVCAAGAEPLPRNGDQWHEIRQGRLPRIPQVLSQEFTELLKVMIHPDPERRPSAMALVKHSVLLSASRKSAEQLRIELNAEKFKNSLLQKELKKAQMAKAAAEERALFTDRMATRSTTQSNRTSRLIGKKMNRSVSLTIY

## c1cc(NC2CCCCC2)nc(Nc2ccc3cn[nH]c3c2)n1
Wee1-like protein kinase
  Ki: 1 µM (active)
[1]
  Ki: 2 µM (active)

## COc1cc(-c2nn(C3CCC(N4CCN(C(C)=O)CC4)CC3)c3ncnc(N)c23)ccc1NC(=O)c1cc2ccccc2n1C (stereo unspecified)
[2]
  Ki: > 1.26 µM (inactive)
[3]
  Ki: > 7.94 µM (inactive)

## NC(=O)c1ccc(Nc2ncnc3[nH]cc(-c4ccccc4)c23)cc1
[4]
  Ki: 0.0631 µM (active)
[5]
  Ki: 0.01 µM (active)
[6]
  Ki: 0.158 µM (active)
[7]
  Ki: 0.2 µM (active)
[1]
  Ki: 0.0126 µM (active)
[8]
  Ki: 0.0398 µM (active)
[9]
  Ki: 3.98 µM (active)
[10]
  Ki: 2 µM (active)

## Nc1nsc2cccc(C(=O)Nc3cccc(CNC(=O)Nc4cccc(F)c4)c3)c12
[11]
  Ki: > 100 µM (inactive)
[12]
  Ki: 3.98 µM (active)

## CCOC(=O)C(c1ccccn1)c1c(Cl)cnn(Cc2cccc3ccccc23)c1=O (stereo unspecified)
[13]
  IC50: > 20 µM (inactive)
[14]
  IC50: 17.6 µM (inactive)
